Assay results reported in ChEMBL document CHEMBL3430912, “GSK Tres Cantos Anti-Kinetoplastid Screening (TCAKS) Data”.

How the values were obtained:
[1] = tested on: Trypanosoma brucei brucei; test: GSK_TCAKS: pIC50 Trypanosoma brucei viability assay using fluorescence intensity. Assay plates (1536-well) were prepared by dispensing 25nL of compound solution per well using an Echo acoustic dispenser (Labcyte).; type: functional, organism-based; conditions: Lister 427, 2 h
NIH3T3 = test: GSK_TCAKS: pIC50 NIH 3T3 cell line viability assay using luminiscence. Tissue culture surface treated assay plates (1536-well) were used. […] The 100% cells survival control was determined exposing the host-cells to a 0.5% DMSO concentration, whereas the 100% toxicity control was achieved by seeding the cells in presence of Amphotericin B at 50uM. Plates were incubated for four days at 37C, 5% CO2. The assay readout was developed by addition of 5uL of CellTiter-Glo Reagent following the manufacturer's instructions. Luminiscence was measured using a ViewLux.; type: functional, cell-based; conditions: Mus musculus, NIH3T3, 96 h
[2] = tested on: Trypanosoma brucei brucei; test: GSK_TCAKS: pIC50 Trypanosoma brucei viability assay using luminiscence. Assay plates (1536-well) were prepared. T. brucei cultures were harvested and counted in a CASY cell counter. A parasite suspension was prepared at a final concentration of 5 * 10^4 cells/mL in complete HMI9 medium and 6uL was dispensed to all wells containing compounds using a Multidrop Combi dispenser. 6uL of HMI9 media with 0.4% DMSO were dispensed to control columns. Plates were incubated for 24 h at 37C, 5% CO2 then tempered for 10 min at room temperature. ATP content was quantified by adding 4 uL of CellTiter-Glo Reagent (Promega) according to the manufacturer's instructions. Luminescence was measured using a ViewLux.; type: functional, organism-based; conditions: Lister 427, CASY
Leishmania donovani [3] = test: (§1) GSK_TCAKS: pIC50 Leishmania donovani Imaging: Infected Macrophages. Assay plates (384-well) were prepared by adding 250nL of compound to each well. For single shot assay, the final compound concentration was 5 uM. […] Automated image analysis was performed with a script developed on Acapella High Content Imaging and Analysis Software (PerkinElmer). Output: Percent of infected macrophage cells were reported for each well.; type: functional, organism-based, Homo sapiens; conditions: THP-1
Trypanosoma cruzi [4] = test: GSK_TCAKS: pIC50 Trypanosoma cruzi viability assay using beta-GAL activity. This assay was run at single shot at 5uM compound concentration per well. The biological reagents consisted of NIH-3T3 host cells and trypomastigotes parasitic cells; both cell types were set to a 3.3 * 10^5 cells/mL dilution in assay DMEM by means of a CASY cell counter device using a 60um capillary. 6 uL of the mixture were dispensed per well (about 1 * 10^3 host-cells and 1 * 10^3 parasites) with a Multidrop Combi dispenser. […] In all wells, the percentage of DMSO never exceeded 0.5%. Plates incubated for four days at 37C, 5% CO2. The substrate used for the assay fluorescence intensity (FLINT) readout was resorufin-beta-D-galactopiranoside (Sigma-Aldrich) at 5uM per well. It was diluted in PBS supplemented with the soft detergent Igepal (Fluka).; type: functional, organism-based, Mus musculus; conditions: Tulahuen, NIH3T3
Leishmania donovani [5] = test: as §1, with “THP-1 Host” for “Infected”, “THP-1 cell count” for “Percent of infected macrophage cells”; type: functional, organism-based, Homo sapiens
Trypanosoma cruzi [6] = test: (§2) GSK_TCAKS: pIC50 H2C9 Imaging: H9c2 Host Cardiomyocytes. […] Cells were then washed once with PBS before infection. T. cruzi trypomastigotes, collected at days 5 to 8 after infection from LLC-MK2 parasite infected cultures, were allowed to swim out for 4h at 37C from a centrifuged pellet (2,500 rpm/10 min/room temperature). Trypomastigotes were then collected and counted in a CASY Cell Counter. Trypomastigotes, in supplemented DMEM, were added to H9c2 cultures in a multiplicity of infection of 1 and incubated for 18 h. Cells were washed once with PBS before incubation of the infected H9c2 monolayer with trypsin (Life-Technologies) to detach cells from the flask. Cells were counted in a CASY Cell Counter using a 150 um capillary and their density set at 5 * 10^4 cells per mL in supplemented assay DMEM. Infected H9c2 were dispensed into 384-well poly-lysine coated assay plates at 50uL per well using a Multidrop Combi dispenser. After seeding them, the plates were incubated at 37C, 5% CO2 for 72h. Cultures were then fixed and stained by addition of 50 uL of a solution containing 8% formaldehyde and 4 uM DRAQ5 DNA dye (BioStatus, UK) per well. […] Five images were collected per well for reliable statistical analysis. Automated image analysis was performed with a script developed on Acapella High Content Imaging and Analysis Software (PerkinElmer). Output: Number of H9c2 Host Cardiomyocytes nuclei to determine drug-related cytotoxicity.; type: functional, organism-based, Rattus norvegicus; conditions: H9c2, 4 h
[7] = biological target: Sterol 14-alpha demethylase (Trypanosoma cruzi (strain CL Brener), UniProt Q7Z1V1); test: GSK_TCAKS: pIC50 CYP51 from Trypanosoma cruzi.; type: functional
Trypanosoma cruzi [8] = test: as §2, with “Trypanosoma cruzi” for “H2C9”, “Amastigotes/Cell.” for “H9c2 Host Cardiomyocytes.”, “number” for “Number”, “amastigotes per cell as infection level measurement.” for “H9c2 Host Cardiomyocytes nuclei to determine drug-related cytotoxicity.”; type: functional, organism-based, Rattus norvegicus; conditions: H9c2, 4 h
Leishmania donovani [9] = test: GSK_TCAKS: pIC50 Leishmania donovani viability assay using fluorescence intensity. Assay plates (1536-well) were prepared by adding 30nL per well of compound. For single shot assay, the final compound concentration was 5uM. […] Briefly, eGFP LdBOB axenic amastigotes were harvested, fixed and counted in a CASY cell counter (Roche-Applied Science). A final concentration of 1.5 * 10^5 cells per well were prepared in amastigote media containing 500 U/mL penicillin/streptomycin (Invitrogen) and 6uL was dispensed to each experimental well using a Multidrop Combi dispenser (Thermo Scientific). 6uL of assay media was dispensed to control columns used as reference for 100% compound response. Following incubation for 72 h at 37C, 5% CO2, 2 uL of resazurin was added to each well at a final concentration of 0.5 mM in phosphate buffered saline (PBS) with IGEPAL (Sigma-Aldrich), 0.05% (v/v).; type: functional, organism-based
[10] = GSK_TCAKS: pIC50 HepG2 human cell line viability assay using luminiscence. […] Seeding density was checked to ensure that new mono-layers were not more than 50% confluent at the time of harvesting. Cell suspension was added to 500 mL of the same medium at a final density of 1.2 * 10^5 cells/mL. This cell suspension was dispensed (25 uL, 3000 cells per well) into 384-well clear-bottom plates using a Multidrop Combi dispenser. Prior to addition of the cell suspension, the screening compounds (250 nL) were pre-dispensed into the plates with an Echo liquid handler. Plates were incubated for 48 h at 37C, 5% CO2. After incubation, plates equilibrated at room temperature for 30 min before proceeding to develop the luminescent signal. The signal developer, CellTiter-Glo Reagent, was allowed to equilibrate at room temperature for 30 min and added to the plates (25uL per well) using a Multidrop Combi dispenser. Plates were left for 10 min at room temperature for stabilization and then read using a ViewLux.; type: toxicity, cell-based
Leishmania donovani [11] = test: as §1, with “Amastigotes/Macrophages.” for “Infected Macrophages.”, “Average number” for “Percent”, “amastigotes per” for “infected”, “cell” for “cells”; type: functional, organism-based, Homo sapiens; conditions: THP-1
Trypanosoma cruzi [12] = test: as §2, with “Trypanosoma cruzi” for “H2C9”, “Infected Cells.” for “H9c2 Host Cardiomyocytes.”, “percentage” for “Number”, “infected cells per well as a second infection marker.” for “H9c2 Host Cardiomyocytes nuclei to determine drug-related cytotoxicity.”; type: functional, organism-based, Rattus norvegicus; conditions: H9c2, 4 h

Chain of Sterol 14-alpha demethylase (Q7Z1V1 whole entry): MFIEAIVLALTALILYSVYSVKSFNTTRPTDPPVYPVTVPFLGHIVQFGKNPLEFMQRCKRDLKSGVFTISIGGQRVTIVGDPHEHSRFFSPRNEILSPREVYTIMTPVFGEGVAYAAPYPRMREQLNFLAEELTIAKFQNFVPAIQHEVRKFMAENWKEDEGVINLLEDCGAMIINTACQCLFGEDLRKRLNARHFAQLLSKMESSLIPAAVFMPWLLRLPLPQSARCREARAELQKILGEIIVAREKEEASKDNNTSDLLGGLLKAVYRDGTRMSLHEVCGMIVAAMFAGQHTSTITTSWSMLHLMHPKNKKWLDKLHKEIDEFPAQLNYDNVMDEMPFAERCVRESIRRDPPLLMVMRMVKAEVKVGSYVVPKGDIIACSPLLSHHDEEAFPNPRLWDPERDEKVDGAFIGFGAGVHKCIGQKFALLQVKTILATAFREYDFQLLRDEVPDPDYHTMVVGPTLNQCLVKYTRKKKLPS

SMILES | IC50 [1] [µM] | IC50 (NIH3T3) [µM] | IC50 [2] [µM] | IC50 (Leishmania donovani [3]) [µM] | IC50 (Trypanosoma cruzi [4]) [nM] | IC50 (Leishmania donovani [5]) [µM] | IC50 (Trypanosoma cruzi [6]) [µM] | IC50 [7] [nM] | IC50 (Trypanosoma cruzi [8]) [nM] | IC50 (Leishmania donovani [9]) [µM] | IC50 at 48 h [10] [µM] | IC50 (Leishmania donovani [11]) [µM] | IC50 (Trypanosoma cruzi [12]) [nM]
O=C(c1ccc(OCCCc2cnc[nH]2)cc1)C1CC1 | 10 | 12.6 | > 39.8 | > 50.1 | 355 | > 50.1 | > 50.1 | 50.1 | 1260 | > 50.1 | > 100 | 7.94 | 1580
Cc1cc(C)c(C#N)c(SCC(=O)c2ccc3c(c2)OCO3)n1 | 20 | > 50.1 | 15.8 | > 50.1 | 2000 | > 50.1 | > 50.1 | > 100000 | 398 | > 50.1 | > 100 | > 50.1 | 794
Cc1cc(N(C)C)nc2ccc(Cc3cnc(N)nc3N)cc12 | 5.01 | 10 | 5.01 | 31.6 | 1260 | 39.8 | > 50.1 | > 100000 | 3160 | > 50.1 | 31.6 | 39.8 | 6310
Cc1cc(Br)cc(C(=O)c2c(C(C)C)c(=O)[nH]c(=O)n2Cc2ccnc(N)c2)c1 | 12.6 | 15.8 | 25.1 | 31.6 | 398 | 39.8 | > 50.1 | 15.8 | 251 | > 50.1 | > 100 | 20 | 316
Clc1ccc(CN2CCN(C3=NCCN3)CC2)cc1Cl | > 39.8 | 39.8 | > 39.8 | > 50.1 | 1260 | > 50.1 | > 50.1 | > 100000 | 1000 | > 50.1 | 63.1 | > 50.1 | 10000
CCCc1nc2nc(N)nc(N)c2cc1CC | 20 | 31.6 | 25.1 | 39.8 | 355 | > 50.1 | 12.6 | > 100000 | 79.4 | 2 | 20 | 39.8 | 316
N#Cc1c(Oc2cccc(Cl)c2)cccc1[N+](=O)[O-] | 0.00794 | 20 | 0.00501 | 10 | 316 | > 50.1 | 15.8 | > 100000 | 126 | 7.94 | 25.1 | 7.94 | 631
COc1ccccc1-c1c(C)[nH]c2nc(N)nc(C)c12 | 25.1 | > 50.1 | > 39.8 | 25.1 | 178 | > 50.1 | > 50.1 | > 100000 | 126 | 12.6 | > 100 | 15.8 | 251
O=C(NCC1CCCCC1)c1cnns1 | 1 | > 50.1 | 1.26 | > 50.1 | 2510 | > 50.1 | > 50.1 | > 100000 | 2000 | 12.6 | 39.8 | 10 | 3160
O=C1CN(C2CCCc3c(OCc4ccncc4)cccc32)C(=O)N1C1CCCCC1 (stereo not drawn) | 15.8 | > 50.1 | > 39.8 | > 50.1 | 251 | > 50.1 | > 50.1 | 20 | 12.6 | > 50.1 | > 100 | > 50.1 | 15.8
Cc1cccc(NS(=O)(=O)c2ccc3c(c2)C(=O)c2cc(S(=O)(=O)Nc4cccc(C)c4C)ccc2-3)c1C | 7.94 | > 50.1 | 10 | > 50.1 | 398 | > 50.1 | 31.6 | > 100000 | 398 | > 50.1 | > 100 | > 50.1 | 398
O=C(Cn1cnc([N+](=O)[O-])n1)Nc1ccc(Cl)cc1C(=O)c1ccccc1 | 20 | > 50.1 | 31.6 | > 50.1 | 251 | > 50.1 | > 50.1 | 10000 | 316 | > 50.1 | > 100 | > 50.1 | 1260
N#Cc1ccc(S(=O)(=O)N2CCN(Cc3cccc(-c4ccncc4)c3)CC2)cc1 | > 39.8 | 12.6 | 20 | > 50.1 | 398 | > 50.1 | 25.1 | 79.4 | 200 | > 50.1 | > 100 | 1.26 | 251
CN(C)Cc1ccc(N2CCC(NS(=O)(=O)c3ccc(Cl)cc3)CC2)cc1 | 25.1 | 15.8 | 31.6 | > 50.1 | 794 | 25.1 | 12.6 | > 100000 | 251 | 39.8 | 50.1 | 25.1 | 316
Oc1nccc2ccc(-c3ccncc3)cc12 | 31.6 | > 50.1 | > 39.8 | > 50.1 | 200 | 39.8 | > 50.1 | 15.8 | 251 | > 50.1 | > 100 | 20 | 251
CNc1cc(Cn2c(C(=O)c3cc(C)cc(Cl)c3)c(C(C)C)c(=O)[nH]c2=O)ccn1 | 25.1 | 10 | 25.1 | 20 | 39.8 | > 50.1 | > 50.1 | 31.6 | 20 | > 50.1 | > 100 | 12.6 | 20
